# Results from patent US8877741B2, “Pyrrolidine derivatives, pharmaceutical compositions and uses thereof” (Boehringer Ingelheim International GmbH, priority 2013, dated 2014).
# Molecular target: human ACC2 (Homo sapiens (Human), UniProt O00763)
# Test: ACC2 assay, spectrophotometric 384 well assay (NADH-linked kinetic method)
# Assay type: biochemical
# Conditions: human ACC2 construct lacking the 128 N-terminal amino acids; coupled lactate dehydrogenase/pyruvate kinase reaction, 340 nm, 25° C.
# Method: Spectrophotometric 384 Well Assay
# Malonyl CoA formation by acetyl CoA carboxylases is stoichometrically linked to the consumption of ATP. ACC2 activity is measured in a NADH-linked kinetic method measuring ADP generated during the ACC reaction using a coupled lactate dehydrogenase/pyruvate kinase reaction.
# For biological testing, a human ACC2 construct which lacks the 128 amino acids at the N-terminus for increased solubility (nt 385-6966 in Genbank entry AJ575592) is cloned. The protein is then expressed in insect cells using a baculoviral expression system. Protein purification is performed by anion exchange.
# All compounds are dissolved in dimethyl sulfoxide (DMSO) to a concentration of 10 mM.
# The enzymatic reaction is then started by addition of a mixture of NADH, acetyl Coenzyme A (both 2000 μM f.c.) and ATP (500 uM f.c.). The decrease of the optical density (slope S) is then determined at 25° C. at a wavelength of 340 nm over 15 minutes in a spectrophotometric reader.
# Each assay microtiter plate contains wells with vehicle instead of compound as controls for the non-inhibited enzyme (100% CTL; ‘HIGH’) and wells without acetyl-CoA as controls for non-specific NADH degradation (0% CTL; ‘LOW’).
# The slope S is used for calculation of % CTL=(S(compound)−S(‘LOW’))/(S(‘HIGH’)−S(‘LOW’))*100.
# For IC50 value determination, the sample slope in the presence of the test compound after subtraction of the low controls (S(compound)−S(‘LOW’)) are used.
# An IC50 value is derived from the compound slopes at different dosages after subtraction of the low controls (S(compound)−S(‘LOW’)) by non-linear regression curve fitting (equation y=(A+((B−A)/(1+((C/x)^D))))).
# Chain of human ACC2 (O00763 129-2458): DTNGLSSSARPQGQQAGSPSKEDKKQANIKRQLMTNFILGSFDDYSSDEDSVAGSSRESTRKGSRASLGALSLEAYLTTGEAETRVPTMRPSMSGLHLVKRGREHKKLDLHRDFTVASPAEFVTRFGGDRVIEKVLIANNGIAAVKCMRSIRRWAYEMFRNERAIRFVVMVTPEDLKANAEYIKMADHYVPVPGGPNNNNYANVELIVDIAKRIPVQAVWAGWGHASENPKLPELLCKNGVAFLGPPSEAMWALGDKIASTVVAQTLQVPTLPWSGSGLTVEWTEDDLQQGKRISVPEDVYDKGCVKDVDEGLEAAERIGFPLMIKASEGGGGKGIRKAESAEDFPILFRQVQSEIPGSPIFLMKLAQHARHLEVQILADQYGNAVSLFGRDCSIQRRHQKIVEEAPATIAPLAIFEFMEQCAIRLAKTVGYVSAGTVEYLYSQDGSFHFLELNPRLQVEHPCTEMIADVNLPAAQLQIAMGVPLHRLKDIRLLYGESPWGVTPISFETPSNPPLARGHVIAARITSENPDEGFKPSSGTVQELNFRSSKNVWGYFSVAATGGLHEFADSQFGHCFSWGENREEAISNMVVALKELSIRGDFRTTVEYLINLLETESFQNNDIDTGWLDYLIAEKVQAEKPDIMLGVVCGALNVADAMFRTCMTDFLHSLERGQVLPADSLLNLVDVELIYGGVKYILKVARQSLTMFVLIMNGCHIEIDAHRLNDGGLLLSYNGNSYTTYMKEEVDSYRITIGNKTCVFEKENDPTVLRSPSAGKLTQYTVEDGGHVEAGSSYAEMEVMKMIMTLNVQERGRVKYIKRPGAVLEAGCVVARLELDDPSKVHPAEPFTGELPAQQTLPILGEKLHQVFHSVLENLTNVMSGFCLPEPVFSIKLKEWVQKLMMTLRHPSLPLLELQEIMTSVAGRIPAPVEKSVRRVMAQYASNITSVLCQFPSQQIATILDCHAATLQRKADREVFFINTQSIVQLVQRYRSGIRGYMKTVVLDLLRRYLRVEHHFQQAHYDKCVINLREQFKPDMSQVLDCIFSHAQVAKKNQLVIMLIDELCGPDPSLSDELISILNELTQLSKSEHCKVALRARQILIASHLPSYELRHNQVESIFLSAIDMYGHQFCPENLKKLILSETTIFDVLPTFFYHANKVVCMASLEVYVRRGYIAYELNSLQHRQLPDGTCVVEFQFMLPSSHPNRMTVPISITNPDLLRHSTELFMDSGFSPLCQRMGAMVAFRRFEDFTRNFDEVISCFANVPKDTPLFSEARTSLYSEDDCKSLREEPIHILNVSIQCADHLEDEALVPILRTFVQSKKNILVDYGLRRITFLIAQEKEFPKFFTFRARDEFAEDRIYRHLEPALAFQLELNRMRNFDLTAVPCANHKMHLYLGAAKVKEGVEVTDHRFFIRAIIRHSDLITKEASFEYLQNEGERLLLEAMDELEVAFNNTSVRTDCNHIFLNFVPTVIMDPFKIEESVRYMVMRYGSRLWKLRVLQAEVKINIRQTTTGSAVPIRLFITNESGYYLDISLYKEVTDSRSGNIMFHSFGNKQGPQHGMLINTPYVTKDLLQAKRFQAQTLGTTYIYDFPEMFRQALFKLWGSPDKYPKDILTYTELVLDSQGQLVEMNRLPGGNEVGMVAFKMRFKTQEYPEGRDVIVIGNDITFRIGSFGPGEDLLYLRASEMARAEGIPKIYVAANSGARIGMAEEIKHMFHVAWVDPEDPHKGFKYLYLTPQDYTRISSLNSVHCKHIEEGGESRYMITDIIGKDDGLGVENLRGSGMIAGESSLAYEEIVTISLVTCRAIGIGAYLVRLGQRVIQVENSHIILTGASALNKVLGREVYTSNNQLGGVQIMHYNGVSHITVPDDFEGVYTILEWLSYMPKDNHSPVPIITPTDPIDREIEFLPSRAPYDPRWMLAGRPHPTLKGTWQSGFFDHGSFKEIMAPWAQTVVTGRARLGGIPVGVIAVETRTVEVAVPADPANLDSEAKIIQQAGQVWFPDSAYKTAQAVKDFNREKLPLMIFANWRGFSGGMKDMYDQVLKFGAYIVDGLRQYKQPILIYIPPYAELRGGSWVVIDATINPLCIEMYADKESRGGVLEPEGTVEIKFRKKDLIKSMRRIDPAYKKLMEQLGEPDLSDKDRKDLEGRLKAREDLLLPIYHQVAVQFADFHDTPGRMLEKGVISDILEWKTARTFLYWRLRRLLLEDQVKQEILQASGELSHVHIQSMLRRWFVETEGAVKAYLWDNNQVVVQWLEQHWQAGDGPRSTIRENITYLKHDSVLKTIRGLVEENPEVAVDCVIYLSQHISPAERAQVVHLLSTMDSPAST
row,Structure (SMILES),IC50
1,CC(=O)N[C@@H](C)c1ccc(O[C@@H]2CCN(c3ccnc(N(C)C4CCCC4)c3)C2)cc1 [Example 10.9],849 nM
2,"CC(=O)Nc1nc(C)c(C(=O)N[C@@H](C)c2ccc(O[C@@H]3CCN(c4ccc(OCC5CC5(F)F)cn4)C3)cc2)s1 (stereo partly drawn) [Example 2.1, 2-Acetamido-N—((1S)-1-(4-((3R)-1-(5-((2,2-difluorocyclopropyl)methoxy)pyridin-2-yl)pyrrolidin-3-yloxy)phenyl)ethyl)-4-methylthiazole-5-carboxamide]",25 nM
3,CCCOc1cnc(N2CCC(Oc3ccc([C@H](C)NC(C)=O)cc3)C2)c(C)c1 (some centres unmarked) [Example 1.39],379 nM
4,CCC(=O)N[C@@H](C)c1ccc(OC2CCN(c3ccc(OCC4CC4(F)F)cn3)C2)cc1 (some centres unmarked) [Example 2.33],55 nM
5,CC(=O)N[C@@H](C)c1ccc(O[C@@H]2CCN(c3ncc(C(F)(F)F)cc3F)C2)cc1 [Example 8.3],755 nM
6,CC(=O)N[C@@H](C)c1ccc(O[C@@H]2CCN(c3ccnc(N4CC(F)(F)C4)c3F)C2)cc1 [Example 1.105],59 nM
7,CC(=O)Nc1cncc(C(=O)N[C@@H](C)c2ccc(OC3CCN(c4ccnc(OC(C)C)c4)C3)cc2)c1 (some centres unmarked) [Example 2.22],998 nM
8,CC(=O)N[C@@H](C)c1ccc(OC2CCN(c3ccnc(Oc4cccnc4)c3)C2)cc1 (some centres unmarked) [Example 1.68],354 nM
9,Cc1c(N2CC[C@@H](Oc3ccc([C@H](C)NC(=O)/C=C/C4CC4)cc3)C2)ccnc1OCC1CC1 [Example 9.59],235 nM
10,CC(=O)N[C@@H](C)c1ccc(O[C@@H]2CCN(c3ccnc(N(C)C(C)C)c3F)C2)cc1 [Example 1.111],112 nM
11,"CC(=O)N[C@@H](C)c1ccc(O[C@@H]2CCN(c3cccc(N(C)C)n3)C2)cc1 [Example 10.1, N—((S)-1-(4-((R)-1-(6-(Dimethylamino)pyridin-2-yl)pyrrolidin-3-yloxy)phenyl)ethyl)acetamide]",145 nM
12,CC(=O)N[C@@H](C)c1ccc(O[C@@H]2CCN(c3ccnc(OCC(C)(F)F)c3F)C2)cc1 [Example 9.85],58 nM
13,CC(=O)N[C@@H](C)c1ccc(O[C@@H]2CCN(c3ccnc(N(C)C)c3F)C2)cc1 [Example 10.17],97 nM
14,C[C@H](NC(=O)C(C)(C)F)c1ccc(OC2CCN(c3ccnc(OCC(F)F)c3)C2)cc1 (some centres unmarked) [Example 2.109],453 nM
15,CCCOc1nccc(N2CC[C@@H](Oc3ccc([C@H](C)NC(C)=O)cc3)C2)c1F [Example 9.53],40 nM
16,CC(=O)N[C@@H](C)c1ccc(O[C@@H]2CCN(c3cccc(N4CCC(C)(O)C4)n3)C2)cc1 (some centres unmarked) [Example 10.47],455 nM
17,C[C@H](NC(=O)C(C)(C)F)c1ccc(OC2CCN(c3ccnc(OCC4CC4)c3)C2)cc1 (some centres unmarked) [Example 2.80],122 nM
18,CC(C)Oc1cc(N2CCC(Oc3ccc([C@H](C)NC(=O)c4ccco4)cc3)C2)ccn1 (some centres unmarked) [Example 2.18],862 nM
19,CCOc1ccc(N2CC[C@@H](Oc3ccc([C@H](C)NC(C)=O)cc3)C2)c(OC)n1 [Example 1.128],360 nM
20,CC(=O)N[C@@H](C)c1ccc(OC2CCN(c3ccc(OC4CCCC4)cn3)C2)cc1 (some centres unmarked) [Example 1.27],70 nM
21,CC(=O)N[C@@H](C)c1ccc(O[C@@H]2CCN(c3cccc(N(C)C[C@H]4CCCO4)n3)C2)cc1 [Example 10.45],165 nM

row,Structure (SMILES),IC50
1,C[C@H](NC(=O)C1CC1)c1ccc(OC2CCN(c3ccc(OCC4CC4(F)F)cn3)C2)cc1 (some centres unmarked) [Example 2.56],175 nM
2,CC(=O)N[C@@H](C)c1ccc(O[C@@H]2CCN(c3cccc(N(C)C(C)C)n3)C2)cc1 [Example 10.31],314 nM
3,CCCOc1cc(N2CC[C@@H](Oc3ccc([C@H](C)NC(=O)C4CC4)cc3)C2)ccn1 [Example 9.37],385 nM
4,CC(=O)N[C@@H](C)c1ccc(O[C@@H]2CCN(c3ccnc(N4CCC5(CC5)C4)c3F)C2)cc1 [Example 1.104],24 nM
5,CC(=O)N[C@@H](C)c1ccc(OC2CCN(c3cc(OCC(C)C)ncc3F)C2)cc1 (some centres unmarked) [Example 1.75],30 nM
6,C[C@H](NC(=O)C(F)F)c1ccc(OC2CCN(c3ccnc(OCC4CC4)c3)C2)cc1 (some centres unmarked) [Example 2.81],35 nM
7,CC(=O)N[C@@H](C)c1ccc(O[C@@H]2CCN(c3cccc(N(C)CC4CCOC4)n3)C2)cc1 (some centres unmarked) [Example 10.25],331 nM
8,CC(=O)N[C@@H](C)c1ccc(O[C@@H]2CCN(c3cc(C(F)(F)F)ccn3)C2)cc1 [Example 8.7],910 nM
9,"CC(O)C(=O)N[C@@H](C)c1ccc(OC2CCN(c3cccc(C(F)(F)F)n3)C2)cc1 (stereo partly drawn) [Example 6.1, 2-Hydroxy-N—((S)-1-(4-((R)-1-(6-(trifluoromethyl)pyridin-2-yl)pyrrolidin-3-yloxy)phenyl)ethyl)propanamide]",428 nM
10,C[C@H](NC(=O)N1CCOCC1)c1ccc(OC2CCN(c3ccnc(OCC(F)F)c3)C2)cc1 (some centres unmarked) [Example 3.13],497 nM
11,CC(C)Oc1cc(N2CCC(Oc3ccc([C@H](C)NC(=O)C4(C)CC4)cc3)C2)ccn1 (some centres unmarked) [Example 2.21],389 nM
12,C[C@H](NC(=O)C(F)(F)F)c1ccc(OC2CCN(c3ccnc(OCC(F)F)c3)C2)cc1 (some centres unmarked) [Example 2.113],77 nM
13,CC(=O)N[C@@H](C)c1ccc(OC2CN(c3ccc(OCC4CC4(F)F)cn3)C[C@H]2F)cc1 (some centres unmarked) [Example 1.94],94 nM
14,C[C@H](NC(=O)CC#N)c1ccc(OC2CCN(c3ccnc(OCC4CC4)c3)C2)cc1 (some centres unmarked) [Example 2.71],110 nM
15,CC(=O)N[C@@H](C)c1ccc(O[C@@H]2CCN(c3cccc(N4CCC4)n3)C2)cc1 [Example 10.11],209 nM
16,CC(=O)N[C@@H](C)c1ccc(O[C@@H]2CCN(c3ccnc(OCC(C)C)c3F)C2)cc1 [Example 9.50],110 nM
17,CC(=O)N[C@@H](C)c1ccc(O[C@@H]2CCN(c3cc(Cl)ncc3C)C2)cc1 [Example 8.2],565 nM
18,CC(=O)N[C@@H](C)c1ccc(O[C@@H]2CCN(c3ccnc(OCC4CCCO4)c3)C2)cc1 (some centres unmarked) [Example 9.49],668 nM
19,CC(=O)Nc1cc(C(=O)N[C@@H](C)c2ccc(OC3CCN(c4ccnc(OC(C)C)c4)C3)cc2)ccn1 (some centres unmarked) [Example 2.26],466 nM
20,CC(=O)N[C@@H](C)c1ccc(O[C@@H]2CCN(c3ccnc(OC4CCCCC4)c3)C2)cc1 [Example 9.7],40 nM
21,CNC(=O)N[C@@H](C)c1ccc(OC2CCN(c3ccnc(OCC(F)F)c3)C2)cc1 (some centres unmarked) [Example 3.14],238 nM

row,Structure (SMILES),IC50
1,CC(=O)N[C@@H](C)c1ccc(O[C@@H]2CCN(c3cccc(N4CCC(F)(F)CC4)n3)C2)cc1 [Example 10.34],464 nM
2,CCC(=O)Nc1nc(C)c(C(=O)N[C@@H](C)c2ccc(O[C@@H]3CCN(c4ccnc(NCC5CC5)c4Cl)C3)cc2)s1 [Example 1.140],65 nM
3,CNc1cccc(N2CC[C@@H](Oc3ccc([C@H](C)NC(C)=O)cc3)C2)n1 [Example 10.21],963 nM
4,COC(C)(C)COc1nccc(N2CC[C@@H](Oc3ccc([C@H](C)NC(C)=O)cc3)C2)c1Cl [Example 9.79],132 nM
5,C[C@H](NC(=O)N(C)C)c1ccc(OC2CCN(c3cccc(C(F)(F)F)n3)C2)cc1 (some centres unmarked) [Example 5.2],90 nM
6,CC(C)C(=O)N[C@@H](C)c1ccc(OC2CCN(c3cccc(C(F)(F)F)n3)C2)cc1 (some centres unmarked) [Example 2.38],869 nM
7,C[C@H](NC(=O)C1CCC1)c1ccc(OC2CCN(c3cccc(C(F)(F)F)n3)C2)cc1 (some centres unmarked) [Example 2.48],891 nM
8,CC(=O)N[C@@H](C)c1ccc(O[C@@H]2CCN(c3ccc(OCC(F)(F)C(F)F)cn3)C2)cc1 [Example 11.2],870 nM
9,C[C@H](NC(=O)N1CCOCC1)c1ccc(OC2CCN(c3ccnc(OCC4CC4(F)F)c3F)C2)cc1 (some centres unmarked) [Example 5.5],310 nM
10,CCN(C)c1ccnc(N2CC[C@@H](Oc3ccc([C@H](C)NC(C)=O)cc3)C2)c1F [Example 1.97],970 nM
11,CC(C)Oc1cc(N2CCC(Oc3ccc([C@H](C)NC(=O)CC(F)(F)F)cc3)C2)ccn1 (some centres unmarked) [Example 2.11],1000 nM
12,CC#CCCOc1cc(N2CC[C@@H](Oc3ccc([C@H](C)NC(C)=O)cc3)C2)ccn1 [Example 9.5],390 nM
13,C[C@H](NC(=O)C1(C)CC1)c1ccc(OC2CCN(c3ccnc(OCC4CC4)c3)C2)cc1 (some centres unmarked) [Example 2.73],65 nM
14,Cc1cc(CC(=O)N[C@@H](C)c2ccc(OC3CCN(c4ccnc(OC(C)C)c4)C3)cc2)on1 (some centres unmarked) [Example 2.31],964 nM
15,C[C@H](NC(=O)C(F)F)c1ccc(OC2CCN(c3cccc(C(F)(F)F)n3)C2)cc1 (some centres unmarked) [Example 2.32],120 nM
16,CC(C)Oc1cc(N2CCC(Oc3ccc([C@H](C)NC(=O)C4CC4)cc3)C2)ccn1 (some centres unmarked) [Example 2.3],149 nM
17,CC(=O)N[C@@H](C)c1ccc(OC2CCN(c3ccc(OCCC(F)(F)F)cn3)C2)cc1 (some centres unmarked) [Example 1.29],130 nM
18,CC(=O)N[C@@H](C)c1ccc(OC2CCN(c3ccc(OC4CCC4)cn3)C2)cc1 (some centres unmarked) [Example 1.26],114 nM
19,COC1CCN(c2cccc(N3CC[C@@H](Oc4ccc([C@H](C)NC(C)=O)cc4)C3)n2)CC1 [Example 10.42],759 nM
20,CC(=O)N[C@@H](C)c1ccc(O[C@@H]2CCN(c3ccnc(OCCc4ccccc4)c3)C2)cc1 [Example 9.12],534 nM
